ChEMBL document CHEMBL5385976, “Recognition of arylmethylidene derivatives of imidazothiazolotriazinones as novel tubulin polymerization inhibitors” (RSC Med Chem, 2024)

Columns and labels:
[1] = test system: MDA-MB-468; assay: Antiproliferative activity against human MDA-MB-468 cells assessed as mean cell growth at 10 uM incubated for 48 hrs by SRB assay relative to control; format: functional
[2] = test system: K562; assay: Inhibition of cell growth in human K562 cells incubated for 72 hrs by MTT assay; format: functional, cell-based; conditions: K562, time 72 hrs
[3] = test system: Panel NCI-60 (60 carcinoma cell lines); assay: Antiproliferative activity against human panel NCI-60 (60 carcinoma cell lines) assessed as total inhibition of cell growth incubated for 48 hrs by SRB assay; format: functional
[4] = test system: COLO357; assay: Inhibition of cell growth in human COLO357 cells incubated for 72 hrs by MTT assay; format: functional, cell-based; conditions: COLO357, time 72 hrs
[5] = test system: MDA-MB-435; assay: Antiproliferative activity against human MDA-MB-435 cells assessed as mean cell growth at 10 uM incubated for 48 hrs by SRB assay relative to control; format: functional
[6] = test system: Panel NCI-60 (60 carcinoma cell lines); assay: Antiproliferative activity against human panel NCI-60 (60 carcinoma cell lines) incubated for 48 hrs by SRB assay; format: functional
[7] = test system: Panc02; assay: Inhibition of cell growth in mouse Panc02 cells incubated for 72 hrs by MTT assay; format: functional
[8] = test system: HL-60(TB); assay: Antiproliferative activity against human HL-60(TB) cells assessed as mean cell growth at 10 uM incubated for 48 hrs by SRB assay relative to control; format: functional
[9] = test system: A498; assay: Antiproliferative activity against human A498 cells assessed as mean cell growth at 10 uM incubated for 48 hrs by SRB assay relative to control; format: functional
[10] = test system: UO-31; assay: Antiproliferative activity against human UO-31 cells assessed as mean cell growth at 10 uM incubated for 48 hrs by SRB assay relative to control; format: functional
[11] = test system: SK-MEL-5; assay: Antiproliferative activity against human SK-MEL-5 cells assessed as mean cell growth at 10 uM incubated for 48 hrs by SRB assay relative to control; format: functional
[12] = test system: SK-OV-3; assay: Antiproliferative activity against human SK-OV-3 cells assessed as mean cell growth at 10 uM incubated for 48 hrs by SRB assay relative to control; format: functional
[13] = test system: SNB-75; assay: Antiproliferative activity against human SNB-75 cells assessed as mean cell growth at 10 uM incubated for 48 hrs by SRB assay relative to control; format: functional
[14] = test system: NCI-H522; assay: Antiproliferative activity against human NCI-H522 cells assessed as mean cell growth at 10 uM incubated for 48 hrs by SRB assay relative to control; format: functional
[15] = test system: DU-145; assay: Antiproliferative activity against human DU-145 cells assessed as mean cell growth at 10 uM incubated for 48 hrs by SRB assay relative to control; format: functional
[16] = test system: NCI-H226; assay: Antiproliferative activity against human NCI-H226 cells assessed as mean cell growth at 10 uM incubated for 48 hrs by SRB assay relative to control; format: functional

| Structure (SMILES) | GI [3] [µM] | Activity [5] [%] | GI50 [6] [nM] | LC50 [6] [nM] | also measured |
| --- | --- | --- | --- | --- | --- |
| CCN1C(=O)N(CC)C2Nn3c(s/c(=C\c4ccc([N+](=O)[O-])cc4)c3=O)=NC21 (configuration not stated) | – | – | – | – | Activity [1]: 67% |
| COc1ccc(/C=c2\sc3n(c2=O)C2C(NN=3)N(C)C(=O)N2C)cc1 (configuration not stated) | >83.8 | 24 | 7320 | > 100000 | GI50 [2]: 2000 nM; GI50 [4]: 400 nM; GI50 [7]: 400 nM |
| CN1C(=O)N(C)C2C1NN=c1s/c(=C\c3cccc([N+](=O)[O-])c3)c(=O)n12 (configuration not stated) | – | 88 | – | – | – |
| CCN1C(=O)N(CC)C2C1NN=c1s/c(=C\c3ccc([N+](=O)[O-])cc3)c(=O)n12 (configuration not stated) | >63 | – | 1040 | > 98600 | GI50 [2]: 400 nM; GI50 [4]: 400 nM; Cell growth relative to control [8]: 26%; GI50 [7]: 400 nM |
| CCN1C(=O)N(CC)C2C1NN=c1s/c(=C\c3ccccc3Br)c(=O)n12 (configuration not stated) | >38.3 | – | 920 | > 87500 | Cell growth relative to control [8]: 21% |
| CCN1C(=O)N(CC)C2C1NN=c1s/c(=C\c3cccc(F)c3)c(=O)n12 (configuration not stated) | >81.2 | 23 | 2450 | > 99100 | GI50 [2]: 80 nM; GI50 [4]: 80 nM; GI50 [7]: 80 nM |
| CCN1C(=O)N(CC)C2C1NN=c1s/c(=C\c3ccc(Br)cc3)c(=O)n12 (configuration not stated) | >80.5 | – | 2570 | > 100000 | GI50 [2]: 80 nM; GI50 [4]: 80 nM; Cell growth relative to control [8]: 19%; GI50 [7]: 400 nM |
| CN1C(=O)N(C)C2Nn3c(s/c(=C\c4ccc([N+](=O)[O-])cc4)c3=O)=NC21 (configuration not stated) | – | – | – | – | Activity [9]: 99% |
| CN1C(=O)N(C)C2C1NN=c1s/c(=C\c3ccc(F)cc3)c(=O)n12 (configuration not stated) | >81.5 | – | 3470 | > 97600 | Cell growth relative to control [8]: 28% |
| CN1C(=O)N(C)C2C1NN=c1s/c(=C\c3ccc(Br)cc3)c(=O)n12 (configuration not stated) | – | 29 | – | – | – |
| CCN1C(=O)N(CC)C2C1NN=c1s/c(=C\c3ccccc3)c(=O)n12 (configuration not stated) | >84.6 | – | 2290 | > 97600 | GI50 [2]: 80 nM; GI50 [4]: 80 nM; Cell growth relative to control [8]: 19%; GI50 [7]: 80 nM |
| CCN1C(=O)N(CC)C2Nn3c(s/c(=C\c4ccc(C(F)(F)F)cc4)c3=O)=NC21 (configuration not stated) | – | – | – | – | Activity [10]: 100% |
| CCN1C(=O)N(CC)C2C1NN=c1s/c(=C\c3ccc(OC)cc3)c(=O)n12 (configuration not stated) | >71.4 | – | 2280 | > 95500 | GI50 [2]: 400 nM; GI50 [4]: 400 nM; Cell growth relative to control [8]: 19%; GI50 [7]: 16 nM |
| CN1C(=O)N(C)C2Nn3c(s/c(=C\c4ccc(Br)cc4)c3=O)=NC21 (configuration not stated) | – | – | – | – | Activity [10]: 98% |
| CC[C@@]1(O)C(=O)OCc2c1cc1n(c2=O)Cc2cc3ccccc3nc2-1 [CAMPTOTHECIN] | – | – | – | – | Activity [11]: -27% |
| CN1C(=O)N(C)C2C1NN=c1s/c(=C\c3ccc(Cl)cc3Cl)c(=O)n12 (configuration not stated) | >78 | – | 650 | > 100000 | GI50 [2]: 80 nM; GI50 [4]: 80 nM; Cell growth relative to control [8]: 27%; GI50 [7]: 80 nM |
| CCN1C(=O)N(CC)C2Nn3c(s/c(=C\c4cccc([N+](=O)[O-])c4)c3=O)=NC21 (configuration not stated) | – | 42 | – | – | – |
| CN1C(=O)N(C)C2Nn3c(s/c(=C\c4ccc(Cl)cc4Cl)c3=O)=NC21 (configuration not stated) | – | 56 | – | – | – |
| CCN1C(=O)N(CC)C2Nn3c(s/c(=C\c4ccc(Cl)cc4Cl)c3=O)=NC21 (configuration not stated) | – | 40 | – | – | – |
| CN1C(=O)N(C)C2Nn3c(s/c(=C\c4ccc(F)cc4)c3=O)=NC21 (configuration not stated) | – | – | – | – | Activity [12]: 103% |
| CCN1C(=O)N(CC)C2C1NN=c1s/c(=C\c3ccccc3F)c(=O)n12 (configuration not stated) | >63.3 | – | 240 | > 95500 | GI50 [2]: 16 nM; GI50 [4]: 16 nM; Cell growth relative to control [8]: 18%; GI50 [7]: 3.2 nM |
| CN1C(=O)N(C)C2Nn3c(s/c(=C\c4ccccc4F)c3=O)=NC21 (configuration not stated) | – | 69 | – | – | – |

| Structure (SMILES) | GI [3] [µM] | Activity [5] [%] | GI50 [6] [nM] | LC50 [6] [nM] | also measured |
| --- | --- | --- | --- | --- | --- |
| CCN1C(=O)N(CC)C2Nn3c(s/c(=C\c4ccccc4F)c3=O)=NC21 (configuration not stated) | – | 41 | – | – | – |
| CN1C(=O)N(C)C2Nn3c(s/c(=C\c4ccc(C(F)(F)F)cc4)c3=O)=NC21 (configuration not stated) | – | – | – | – | Activity [13]: 102% |
| CCN1C(=O)N(CC)C2C1NN=c1s/c(=C\c3cccc([N+](=O)[O-])c3)c(=O)n12 (configuration not stated) | >83.1 | – | 2020 | > 98700 | GI50 [2]: 400 nM; GI50 [4]: 400 nM; Cell growth relative to control [8]: 23%; GI50 [7]: 80 nM |
| CN1C(=O)N(C)C2Nn3c(s/c(=C\c4ccccc4)c3=O)=NC21 (configuration not stated) | – | – | – | – | Activity [9]: 97% |
| CN1C(=O)N(C)C2C1NN=c1s/c(=C\c3ccc(C(F)(F)F)cc3)c(=O)n12 (configuration not stated) | >72.2 | 26 | 4210 | > 97700 | – |
| CCN1C(=O)N(CC)C2Nn3c(s/c(=C\c4ccccc4Br)c3=O)=NC21 (configuration not stated) | >53.6 | 22 | 2430 | > 95000 | – |
| CN1C(=O)N(C)C2C1NN=c1s/c(=C\c3ccc([N+](=O)[O-])cc3)c(=O)n12 (configuration not stated) | – | 58 | – | – | – |
| CCN1C(=O)N(CC)C2Nn3c(s/c(=C\c4ccc(F)cc4)c3=O)=NC21 (configuration not stated) | – | – | – | – | Activity [14]: 101% |
| CC(=O)O[C@H]1C(=O)[C@@]2(C)[C@H]([C@H](OC(=O)c3ccccc3)[C@]3(O)C[C@H](OC(=O)[C@H](O)[C@@H](NC(=O)c4ccccc4)c4ccccc4)C(C)=C1C3(C)C)[C@]1(OC(C)=O)CO[C@@H]1C[C@@H]2O [PACLITAXEL] | – | – | – | – | Activity [15]: 15% |
| CN1C(=O)N(C)C2C1NN=c1s/c(=C\c3ccccc3F)c(=O)n12 (configuration not stated) | >75.9 | – | 610 | > 97600 | GI50 [2]: 400 nM; GI50 [4]: 80 nM; Cell growth relative to control [8]: 21%; GI50 [7]: 16 nM |
| COc1ccc(/C=c2\sc3n(c2=O)NC2C(N=3)N(C)C(=O)N2C)cc1 (configuration not stated) | – | – | – | – | Activity [10]: 98% |
| CCN1C(=O)N(CC)C2Nn3c(s/c(=C\c4cccc(F)c4)c3=O)=NC21 (configuration not stated) | – | 65 | – | – | – |
| CCN1C(=O)N(CC)C2Nn3c(s/c(=C\c4ccc(OC)cc4)c3=O)=NC21 (configuration not stated) | – | 48 | – | – | – |
| CCN1C(=O)N(CC)C2Nn3c(s/c(=C\c4ccccc4)c3=O)=NC21 (configuration not stated) | – | 67 | – | – | – |
| COc1cccc2c1C(=O)c1c(O)c3c(c(O)c1C2=O)C[C@@](O)(C(=O)CO)C[C@@H]3O[C@H]1C[C@H](N)[C@H](O)[C@H](C)O1 [DOXORUBICIN] | – | – | – | – | Activity [11]: -20% |
| CCN1C(=O)N(CC)C2C1NN=c1s/c(=C\c3ccc(C(F)(F)F)cc3)c(=O)n12 (configuration not stated) | >65.4 | – | 610 | > 96600 | GI50 [2]: 2000 nM; GI50 [4]: 2000 nM; Cell growth relative to control [8]: 19%; GI50 [7]: 2000 nM |
| CCN1C(=O)N(CC)C2C1NN=c1s/c(=C\c3ccc(F)cc3)c(=O)n12 (configuration not stated) | >81.3 | – | 1680 | > 97800 | GI50 [2]: 400 nM; GI50 [4]: 80 nM; Cell growth relative to control [8]: 21%; GI50 [7]: 80 nM |
| COc1cccc2c1C(=O)c1c(O)c3c(c(O)c1C2=O)C[C@@](O)(C(C)=O)C[C@@H]3O[C@H]1C[C@H](N)[C@H](O)[C@H](C)O1 [DAUNORUBICIN] | – | – | – | – | Activity [11]: -28% |
| CN1C(=O)N(C)C2Nn3c(s/c(=C\c4cccc([N+](=O)[O-])c4)c3=O)=NC21 (configuration not stated) | – | – | – | – | Activity [16]: 92% |
| CCN1C(=O)N(CC)C2Nn3c(s/c(=C\c4ccc(Br)cc4)c3=O)=NC21 (configuration not stated) | – | – | – | – | Activity [13]: 95% |
| CN1C(=O)N(C)C2C1NN=c1s/c(=C\c3ccccc3)c(=O)n12 (configuration not stated) | – | 41 | – | – | – |
